Assay [1] has as its target Neuronal acetylcholine receptor subunit alpha-4 (Homo sapiens, UniProt P43681).
In assay [2] the target is T1, Cannabinoid receptor 1 (Homo sapiens, UniProt P21554). It counts as functional, cell-based.
For assay [3], the target named is D(1A) dopamine receptor (Homo sapiens, UniProt P21728). It counts as functional, cell-based.
Assay [4] addresses Motilin receptor (Homo sapiens, UniProt O43193).
Assay [5] addresses T2, Progesterone receptor (Homo sapiens, UniProt P06401).
T2 sequence (P06401 whole entry): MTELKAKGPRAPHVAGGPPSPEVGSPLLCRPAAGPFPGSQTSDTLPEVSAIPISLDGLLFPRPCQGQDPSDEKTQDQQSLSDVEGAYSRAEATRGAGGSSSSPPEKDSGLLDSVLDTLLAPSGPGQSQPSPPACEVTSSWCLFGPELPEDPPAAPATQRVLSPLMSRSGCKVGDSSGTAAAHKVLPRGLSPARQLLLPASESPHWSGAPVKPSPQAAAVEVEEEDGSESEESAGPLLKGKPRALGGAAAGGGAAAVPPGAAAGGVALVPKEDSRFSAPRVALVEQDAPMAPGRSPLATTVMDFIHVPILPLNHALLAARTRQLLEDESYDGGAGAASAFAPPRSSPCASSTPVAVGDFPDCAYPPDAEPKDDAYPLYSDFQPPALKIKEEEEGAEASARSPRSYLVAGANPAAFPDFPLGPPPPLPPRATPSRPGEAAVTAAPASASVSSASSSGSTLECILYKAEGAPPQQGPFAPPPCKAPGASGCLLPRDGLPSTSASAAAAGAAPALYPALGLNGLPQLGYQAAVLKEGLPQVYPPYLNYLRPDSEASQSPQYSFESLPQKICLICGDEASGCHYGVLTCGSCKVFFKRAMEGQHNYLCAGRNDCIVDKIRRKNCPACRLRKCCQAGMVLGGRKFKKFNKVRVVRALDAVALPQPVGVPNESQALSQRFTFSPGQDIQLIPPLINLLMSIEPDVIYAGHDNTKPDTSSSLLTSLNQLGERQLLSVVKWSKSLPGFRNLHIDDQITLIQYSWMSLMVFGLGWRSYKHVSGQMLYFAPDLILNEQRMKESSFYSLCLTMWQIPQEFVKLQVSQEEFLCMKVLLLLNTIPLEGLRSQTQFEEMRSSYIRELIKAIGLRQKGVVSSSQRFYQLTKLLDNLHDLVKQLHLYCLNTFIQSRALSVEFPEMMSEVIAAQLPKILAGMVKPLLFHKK
It counts as functional.

In assay [6] the target is T3, Amine oxidase [flavin-containing] A (Homo sapiens, UniProt P21397).
T3 sequence (P21397 whole entry): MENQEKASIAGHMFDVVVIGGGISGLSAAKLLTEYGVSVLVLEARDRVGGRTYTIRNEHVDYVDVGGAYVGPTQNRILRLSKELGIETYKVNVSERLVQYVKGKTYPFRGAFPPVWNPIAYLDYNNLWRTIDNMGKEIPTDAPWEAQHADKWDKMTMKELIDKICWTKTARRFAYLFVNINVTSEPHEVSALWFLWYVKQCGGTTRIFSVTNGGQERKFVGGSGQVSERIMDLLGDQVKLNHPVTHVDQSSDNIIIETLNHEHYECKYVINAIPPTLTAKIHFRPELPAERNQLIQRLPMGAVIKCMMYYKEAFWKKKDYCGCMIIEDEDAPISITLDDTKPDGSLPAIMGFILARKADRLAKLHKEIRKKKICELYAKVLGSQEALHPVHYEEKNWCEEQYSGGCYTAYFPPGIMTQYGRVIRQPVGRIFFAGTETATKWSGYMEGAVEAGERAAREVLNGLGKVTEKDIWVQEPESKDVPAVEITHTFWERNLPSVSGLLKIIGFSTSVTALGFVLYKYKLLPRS
It counts as functional.

For assay [7], the target named is D(3) dopamine receptor (Homo sapiens, UniProt P35462).
Sequence of D(3) dopamine receptor (P35462 whole entry): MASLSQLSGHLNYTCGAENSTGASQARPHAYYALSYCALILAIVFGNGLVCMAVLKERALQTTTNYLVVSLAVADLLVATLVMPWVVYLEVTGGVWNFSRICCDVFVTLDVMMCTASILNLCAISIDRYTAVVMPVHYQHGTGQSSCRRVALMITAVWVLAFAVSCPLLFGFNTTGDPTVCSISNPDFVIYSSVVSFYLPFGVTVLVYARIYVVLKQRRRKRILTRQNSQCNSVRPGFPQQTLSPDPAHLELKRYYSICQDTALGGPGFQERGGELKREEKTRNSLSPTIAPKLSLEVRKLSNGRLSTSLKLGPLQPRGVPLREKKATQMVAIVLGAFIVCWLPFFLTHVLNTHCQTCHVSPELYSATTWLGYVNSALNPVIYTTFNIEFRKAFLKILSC
Assay [8] concerns the target Histamine H3 receptor (Homo sapiens, UniProt Q9Y5N1).
Assay [9] concerns the target T1, Cannabinoid receptor 1.
Assay [10] addresses Muscarinic acetylcholine receptor M3 (Homo sapiens, UniProt P20309).
Assay [11] concerns the target Histamine H1 receptor (Homo sapiens, UniProt P35367).
Assay [12] has as its target Mu-type opioid receptor (Homo sapiens, UniProt P35372).
Assay [13] has as its target Prostaglandin G/H synthase 1 (Homo sapiens, UniProt P23219). The class given is functional.

This note sets out measurements from ChEMBL document CHEMBL5291721, “A preclinical secondary pharmacology resource illuminates target-adverse drug reaction associations of marketed drugs” (Nat Commun, 2023).
Also: assay procedure not described here.

Sequence of D(1A) dopamine receptor (P21728 whole entry): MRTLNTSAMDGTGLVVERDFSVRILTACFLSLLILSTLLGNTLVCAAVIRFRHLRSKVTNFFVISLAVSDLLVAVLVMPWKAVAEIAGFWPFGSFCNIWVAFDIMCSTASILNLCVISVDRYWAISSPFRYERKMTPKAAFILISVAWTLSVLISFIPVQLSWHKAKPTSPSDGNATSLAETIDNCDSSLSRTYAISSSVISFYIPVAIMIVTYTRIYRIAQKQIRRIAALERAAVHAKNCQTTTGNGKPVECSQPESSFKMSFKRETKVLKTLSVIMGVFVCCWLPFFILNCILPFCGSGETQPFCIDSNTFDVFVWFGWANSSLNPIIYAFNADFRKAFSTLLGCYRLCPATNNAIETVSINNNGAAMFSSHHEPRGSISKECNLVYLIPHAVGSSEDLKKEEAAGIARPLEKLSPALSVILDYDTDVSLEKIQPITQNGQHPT
Sequence of Neuronal acetylcholine receptor subunit alpha-4 (P43681 whole entry): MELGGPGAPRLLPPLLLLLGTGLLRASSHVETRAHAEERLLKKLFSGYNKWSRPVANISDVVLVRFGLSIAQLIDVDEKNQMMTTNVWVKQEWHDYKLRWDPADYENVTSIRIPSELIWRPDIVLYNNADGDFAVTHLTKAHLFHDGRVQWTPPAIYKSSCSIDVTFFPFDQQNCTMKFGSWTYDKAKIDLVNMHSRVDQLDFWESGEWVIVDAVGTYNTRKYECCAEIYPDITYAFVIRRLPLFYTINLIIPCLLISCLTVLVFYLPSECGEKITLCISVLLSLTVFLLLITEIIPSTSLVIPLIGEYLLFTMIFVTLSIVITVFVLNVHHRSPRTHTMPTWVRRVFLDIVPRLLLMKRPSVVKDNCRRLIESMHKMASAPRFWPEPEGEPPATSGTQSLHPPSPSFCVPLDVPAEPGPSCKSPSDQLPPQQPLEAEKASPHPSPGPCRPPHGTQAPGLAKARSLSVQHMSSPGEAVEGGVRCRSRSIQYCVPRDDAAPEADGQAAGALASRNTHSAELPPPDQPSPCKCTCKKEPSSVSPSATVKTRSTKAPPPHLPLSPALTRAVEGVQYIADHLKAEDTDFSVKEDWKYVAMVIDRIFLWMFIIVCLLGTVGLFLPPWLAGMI
Sequence of Motilin receptor (O43193 whole entry): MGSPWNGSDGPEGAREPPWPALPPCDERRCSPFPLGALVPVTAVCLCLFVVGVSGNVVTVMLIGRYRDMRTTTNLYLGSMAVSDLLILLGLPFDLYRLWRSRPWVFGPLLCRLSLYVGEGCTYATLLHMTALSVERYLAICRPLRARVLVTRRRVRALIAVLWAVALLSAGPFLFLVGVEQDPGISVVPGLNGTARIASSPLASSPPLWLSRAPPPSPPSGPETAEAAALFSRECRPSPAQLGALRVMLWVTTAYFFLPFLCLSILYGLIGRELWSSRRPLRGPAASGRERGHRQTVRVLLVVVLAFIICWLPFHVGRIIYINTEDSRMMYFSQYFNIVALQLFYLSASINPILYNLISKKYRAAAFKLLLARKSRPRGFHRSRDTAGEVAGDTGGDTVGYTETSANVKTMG
T1 sequence (P21554 whole entry): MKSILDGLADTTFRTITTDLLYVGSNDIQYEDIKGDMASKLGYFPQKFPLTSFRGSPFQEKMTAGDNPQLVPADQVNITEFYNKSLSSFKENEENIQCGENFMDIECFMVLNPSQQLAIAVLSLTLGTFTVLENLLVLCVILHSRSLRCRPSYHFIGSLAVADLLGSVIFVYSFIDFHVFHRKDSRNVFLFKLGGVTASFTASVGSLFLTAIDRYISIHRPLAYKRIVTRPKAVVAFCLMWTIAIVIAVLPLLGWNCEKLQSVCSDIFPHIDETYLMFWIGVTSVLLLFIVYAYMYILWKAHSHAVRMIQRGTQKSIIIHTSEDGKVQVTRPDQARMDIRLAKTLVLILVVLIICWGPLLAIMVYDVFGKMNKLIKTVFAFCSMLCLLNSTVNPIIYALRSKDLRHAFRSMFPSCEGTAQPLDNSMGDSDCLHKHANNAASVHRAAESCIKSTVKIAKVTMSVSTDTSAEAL
Sequence of Histamine H3 receptor (Q9Y5N1 whole entry): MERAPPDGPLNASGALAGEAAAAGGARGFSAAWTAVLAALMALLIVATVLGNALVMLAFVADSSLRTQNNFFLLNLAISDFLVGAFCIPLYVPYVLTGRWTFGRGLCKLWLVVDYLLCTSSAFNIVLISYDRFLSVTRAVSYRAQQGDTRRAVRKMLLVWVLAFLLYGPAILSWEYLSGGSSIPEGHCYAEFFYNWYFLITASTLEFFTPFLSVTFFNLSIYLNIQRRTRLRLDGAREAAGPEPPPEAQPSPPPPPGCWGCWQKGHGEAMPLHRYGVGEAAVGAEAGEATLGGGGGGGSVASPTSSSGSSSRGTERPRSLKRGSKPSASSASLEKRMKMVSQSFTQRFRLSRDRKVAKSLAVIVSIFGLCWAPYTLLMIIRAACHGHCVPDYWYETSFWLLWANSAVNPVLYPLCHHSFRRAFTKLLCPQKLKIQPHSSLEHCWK
Sequence of Prostaglandin G/H synthase 1 (P23219 whole entry): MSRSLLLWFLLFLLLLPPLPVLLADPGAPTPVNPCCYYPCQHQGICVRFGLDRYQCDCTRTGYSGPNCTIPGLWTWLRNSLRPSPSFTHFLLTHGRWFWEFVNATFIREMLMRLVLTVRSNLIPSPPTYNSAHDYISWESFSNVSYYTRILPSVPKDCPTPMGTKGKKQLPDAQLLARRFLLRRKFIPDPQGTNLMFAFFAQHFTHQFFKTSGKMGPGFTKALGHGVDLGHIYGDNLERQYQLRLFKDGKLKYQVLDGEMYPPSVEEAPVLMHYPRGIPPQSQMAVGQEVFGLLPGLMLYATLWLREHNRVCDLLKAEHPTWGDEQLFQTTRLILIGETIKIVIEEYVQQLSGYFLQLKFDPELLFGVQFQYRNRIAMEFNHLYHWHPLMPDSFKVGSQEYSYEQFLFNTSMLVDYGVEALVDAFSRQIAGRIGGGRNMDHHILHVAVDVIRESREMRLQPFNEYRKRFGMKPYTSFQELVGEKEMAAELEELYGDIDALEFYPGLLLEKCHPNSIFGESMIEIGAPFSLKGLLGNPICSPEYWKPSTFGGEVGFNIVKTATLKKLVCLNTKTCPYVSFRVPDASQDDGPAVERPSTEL
Sequence of Mu-type opioid receptor (P35372 whole entry): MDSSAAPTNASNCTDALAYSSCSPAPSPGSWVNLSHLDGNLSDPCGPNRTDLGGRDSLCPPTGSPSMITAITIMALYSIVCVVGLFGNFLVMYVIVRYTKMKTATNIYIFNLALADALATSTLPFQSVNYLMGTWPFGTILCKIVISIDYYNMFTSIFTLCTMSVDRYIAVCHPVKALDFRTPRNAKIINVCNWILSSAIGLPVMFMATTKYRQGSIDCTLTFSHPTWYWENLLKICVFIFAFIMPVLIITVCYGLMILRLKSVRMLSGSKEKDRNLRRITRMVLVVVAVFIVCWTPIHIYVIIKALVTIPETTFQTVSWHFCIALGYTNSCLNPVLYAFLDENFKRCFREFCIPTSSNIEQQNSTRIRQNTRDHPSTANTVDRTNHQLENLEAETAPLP
Sequence of Muscarinic acetylcholine receptor M3 (P20309 whole entry): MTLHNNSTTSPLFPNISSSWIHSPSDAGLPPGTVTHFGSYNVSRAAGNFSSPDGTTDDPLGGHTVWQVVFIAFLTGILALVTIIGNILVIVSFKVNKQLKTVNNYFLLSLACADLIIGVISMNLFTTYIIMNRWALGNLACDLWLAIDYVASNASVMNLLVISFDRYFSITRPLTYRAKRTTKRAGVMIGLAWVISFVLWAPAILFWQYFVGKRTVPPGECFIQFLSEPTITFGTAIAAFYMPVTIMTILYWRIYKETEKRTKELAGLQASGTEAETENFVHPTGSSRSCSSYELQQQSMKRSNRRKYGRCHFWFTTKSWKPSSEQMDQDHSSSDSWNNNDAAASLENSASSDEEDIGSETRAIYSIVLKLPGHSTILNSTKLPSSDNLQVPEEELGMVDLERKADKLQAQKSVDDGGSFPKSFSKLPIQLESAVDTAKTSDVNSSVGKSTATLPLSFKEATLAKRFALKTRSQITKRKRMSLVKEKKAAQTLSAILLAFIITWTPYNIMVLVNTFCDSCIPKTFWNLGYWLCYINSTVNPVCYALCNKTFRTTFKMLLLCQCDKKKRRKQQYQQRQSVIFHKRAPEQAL
Sequence of Histamine H1 receptor (P35367 whole entry): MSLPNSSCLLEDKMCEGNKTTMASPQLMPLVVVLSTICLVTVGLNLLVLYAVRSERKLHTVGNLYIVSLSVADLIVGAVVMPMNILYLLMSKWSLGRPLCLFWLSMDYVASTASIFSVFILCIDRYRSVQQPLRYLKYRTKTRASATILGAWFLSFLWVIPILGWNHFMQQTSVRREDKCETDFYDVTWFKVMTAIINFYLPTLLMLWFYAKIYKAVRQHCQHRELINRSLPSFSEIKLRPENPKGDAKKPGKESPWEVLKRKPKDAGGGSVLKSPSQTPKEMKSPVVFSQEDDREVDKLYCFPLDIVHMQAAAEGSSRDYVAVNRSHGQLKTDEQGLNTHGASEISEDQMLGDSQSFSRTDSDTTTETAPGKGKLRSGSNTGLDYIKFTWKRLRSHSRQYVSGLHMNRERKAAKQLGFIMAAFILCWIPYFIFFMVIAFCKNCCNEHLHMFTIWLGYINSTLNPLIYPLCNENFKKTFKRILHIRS

Turning to `CC(C)c1cccc(C(C)C)c1O` [PROPOFOL], the AC50 in assay [1], in assay [2], in [3], in assay [4], in [5] and in assay [6] was greater than 30 µM in each case. The AC50 in assay [7] and in [8] was greater than 30 µM each time.
In the case of `Cc1ccccc1N1C(=O)c2cc(S(N)(=O)=O)c(Cl)cc2NC1C` (stereo not given) [METOLAZONE], the AC50 in assay [1], in [9], in [3], in assay [4], in assay [5] and in assay [6] was greater than 10 µM in each case. Besides, the AC50 (commonly the concentration giving half of the maximal activity seen) in assay [7] is greater than 30 µM.
As for `CCCN1CC(NS(=O)(=O)N(CC)CC)CC2Cc3c(O)cccc3CC21` (stereo not given) [QUINAGOLIDE], the AC50 is greater than 30 µM in assay [10]; greater than 30 µM in assay [1]; greater than 30 µM in [2]; 0.15 µM in assay [3]; 2.8 µM in [11]; greater than 30 µM in assay [4]. Moreover, the AC50 in [5] was greater than 30 µM; in assay [6], greater than 30 µM; in [7], 0.0028 µM; in [8], greater than 30 µM.
As for `CCC1(c2ccc(N)cc2)CCC(=O)NC1=O` (stereo not given) [AMINOGLUTETHIMIDE], the AC50 in assay [1], in [2], in assay [3], in [4], in [5] and in assay [6] was greater than 30 µM throughout. The half-maximal activity concentration (AC50) in assay [7] and in assay [8] was greater than 30 µM in each case.
With `COc1ccc2c(C(=S)N(C)CC(=O)O)cccc2c1C(F)(F)F` [TOLRESTAT], the AC50 in assay [12] and in assay [13] was greater than 30 µM throughout.
In the case of `C[N+](C)(C)CCOP(=O)([O-])OC[C@H](O)CO`, the concentration at half-maximal activity (AC50) in assay [1], in [2], in assay [3], in assay [4], in [5] and in assay [6] was greater than 30 µM each time. In addition, the AC50 in [7] and in assay [8] was greater than 30 µM each time.
For `NNCCc1ccccc1` [PHENELZINE], the concentration at half-maximal activity (AC50) in assay [12] is greater than 30 µM; in assay [13], 0.891 µM.
For `CC(=O)OC[C@H]1O[C@@H](n2ncc(=O)[nH]c2=O)[C@H](OC(C)=O)[C@@H]1OC(C)=O` [AZARIBINE] the same measures were greater than 30 µM and greater than 30 µM.
The corresponding values for `C=C1CC[C@H](O)C/C1=C/C=C1\CCC[C@]2(C)[C@@H]([C@H](C)CCCC(C)C)CC[C@@H]12` [CHOLECALCIFEROL] are greater than 30 µM and 22.9 µM.
For `Cc1ccc(C(=O)C(C)CN2CCCCC2)cc1` (stereo not given) [TOLPERISONE] the same measures were greater than 30 µM and greater than 30 µM.
`CC(O)(P(=O)(O)O)P(=O)(O)O` [ETIDRONIC ACID]: the AC50 in assay [12] and in assay [13] was greater than 30 µM throughout.
Regarding `CN[C@@H](C)[C@@H](O)c1ccccc1` [PSEUDOEPHEDRINE], the AC50 in assay [10], in [1], in assay [3], in assay [11], in assay [4] and in [6] was greater than 10 µM in each case. Besides, the AC50 in [7] and in assay [8] was greater than 10 µM each time.
Take `NC[C@H]1CC[C@H](C(=O)Oc2ccc(CCC(=O)O)cc2)CC1` [CETRAXATE]: the AC50 in [2], in assay [3], in [12], in [13], in assay [6] and in assay [7] was greater than 30 µM in each case.
As to `CCOC(=O)C1=C(C)NC(C)=C(C(=O)OCC)C1c1ccccc1/C=C/C(=O)OC(C)(C)C` [LACIDIPINE], the AC50 in assay [1], in assay [2], in [3], in [4], in assay [5] and in assay [6] was greater than 30 µM each time. The AC50 in [7] and in assay [8] was greater than 30 µM in each case.
